According to the supplement of paper PMC5412046:
Where a name gives a salt, the structure may show the parent alone.

Assays:
[1] = tested on: SB.msgc-1; assay: AC50 for growth inhibition (viability) (log10 M); higher = less potent; settings: SB.msgc-1 (sporadic gastric cancer)
Procedure, shortened: (§1)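 In 1536-well plates, each well held 500 patient-derived gastric cancer cells (hereditary or sporadic) in 5 μL medium. Compound in DMSO, 23 nL per well, was pinned in 11 threefold dilutions starting at a final 46 μM. Following 48 h of exposure, cells had CellTiter-Glo for 30 min at room temperature before ViewLux luminescence reading. Only high-quality curve classes from four-parameter fits of DMSO-normalised viability gave the log half-maximal activity concentration.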

[2] = tested on: SB.mhdgc-1; assay: as above; settings: SB.mhdgc-1 (hereditary c.1380delA CDH1 gastric cancer)
Procedure, shortened: as §1

| Structure (SMILES) | AC50 for growth inhibition (log10 M) [1] | AC50 for growth inhibition (log10 M) [2] |
| --- | --- | --- |
| Cc1ccc(NC(=O)Nc2cc(C(F)(F)F)ccc2F)cc1Nc1ccc2c(c1)NC(=O)/C2=C\c1ccc[nH]1 [GNF-5837] | -4.73 | -4.83 |
| O=C1c2c(O)cc(O)cc2O[C@H](c2cc(O)c(O)c(O)c2)[C@H]1O [Dihydromyricetin] | -5.23 | -5.33 |
| COC1=CC=C(C=N1)C/2=C/C3=C(C)N=C(N)N=C3N(C4CCC(CC4)OCCO)C2=O (centres undefined) | -7.18 | -7.88 |
| CCn1c(-c2nonc2N)nc2cnc(Oc3cccc(NC(=O)c4ccc(OCCN5CCOCC5)cc4)c3)cc21 | -5.18 | -4.98 |
| COC1=C(CC=C(C)C)C2=C(\C=C/C(=O)O2)C=C1 [Osthol] | -5.53 | -5.78 |
| COc1cc(C)c(Sc2cnc(NC(=O)c3ccc(CNC(C)C(C)C)cc3)s2)cc1C(=O)N1CCN(C(C)=O)CC1 (centres undefined) [ITK inhibitor] | -4.73 | -4.78 |
| Cn1cc(-c2cnn3c(N)c(Br)c([C@H]4CCCNC4)nc23)cn1 | -6.83 | -5.88 |
| Cc1n[nH]c2ccc(-c3cncc(OC[C@@H](N)Cc4ccccc4)c3)cc12 | -5.43 | -6.43 |
| CN(C)CCCN1c2ccccc2CCc2ccc(Cl)cc21 [Clomipramine hydrochloride] | -5.93 | -6.13 |
| c1nc2c(NC3CCCCC3)nc(Nc3ccc(N4CCOCC4)cc3)nc2[nH]1 [Reversine] | -4.73 | -4.63 |
| CC(O)(C[S+](=O)([O-])c1ccc(F)cc1)C(=O)Nc1ccc(C#N)c(C(F)(F)F)c1 (centres undefined) [Bicalutamide] | -5.98 | -6.43 |
| COc1cccc2cc(-c3nc(C4CCC(C(=O)O)CC4)n4ncnc(N)c34)[nH]c12 (centres undefined) [OSI-027] | -5.33 | -7.58 |
| C=CC(=O)Nc1cc2c(Nc3ccc(F)c(Cl)c3)ncnc2cc1C#CC(C)(C)N1CCN(C)CC1 [AV-412] | -5.08 | -5.53 |
| CN(C)[C@@H](CCOc1cccc2ccccc12)c1ccccc1 [Dapoxetine hydrochloride] | -4.73 | -5.48 |
| CC(C)NCC(O)c1ccc(NS(C)(=O)=O)cc1 (centres undefined) [Sotalol] | -5.03 | -4.83 |
| CCCCc1oc2ccc(NS(C)(=O)=O)cc2c1C(=O)c1ccc(OCCCN(CCCC)CCCC)cc1 [Dronedarone] | -4.63 | -4.73 |
| CN(C)CCN1C(=O)c2cccc3cc(N)cc(c23)C1=O [Amonafide] | -5.08 | -5.68 |
| O=C(Nc1nc2ccccc2n1CCN1CCOCC1)c1cccc([N+](=O)[O-])c1 | -4.83 | -4.83 |
| O=C(c1ccccc1)c1ccc2n1CCC2C(=O)O (centres undefined) [Ketorolac] | -5.78 | -5.98 |
| CN[C@@H](C)C(=O)N[C@H]1CN(C(=O)CC(C)C)CC[C@H]2CC[C@@H](C(=O)NC(c3ccccc3)c3ccccc3)N2C1=O [AT-406] | -4.98 | -5.63 |
| CC(C)(F)C[C@H](N[C@@H](c1ccc(-c2ccc([S+](C)(=O)[O-])cc2)cc1)C(F)(F)F)C(=O)NC1(C#N)CC1 [Odanacatib] | -4.88 | -5.38 |
| COC1CCC(C(=O)c2ccc3nc4c(cc3c2)CCCO4)CC1 (centres undefined) | -4.78 | -4.78 |
| NC(=O)Nc1cc(-c2ccc(CN3CCOCC3)cc2)sc1C(N)=O [AZ-TAK1 Inhibitor] | -4.73 | -4.68 |
| CCC1=C2C=C(OC(=O)N3CCC(CC3)N4CCCCC4)C=CC2=NC\5=C1CN6C(=O)\C7=C(/C=C56)[C@@](O)(CC)C(=O)OC7 [Irinotecan] | -6.73 | -6.78 |

| Structure (SMILES) | AC50 for growth inhibition (log10 M) [1] | AC50 for growth inhibition (log10 M) [2] |
| --- | --- | --- |
| CCOC(=O)N1CCN(/[N+]([O-])=N/Oc2ccc([N+](=O)[O-])cc2C#N)CC1 [JS-59-4] | -5.13 | -4.78 |
| COc1cc2ncnc(Nc3cccc(Cl)c3)c2cc1OC [AG-1478] | -6.23 | -7.43 |
| CN[C@H]1CCC2=CC(=C(OC)C(=C2C/3=C/C=C(OC)\C(=O)/C=C13)OC)OC [Demecolcine] | -8.83 | -8.13 |
| C[C@@H]1C[C@H]2[C@@H]3\C=C(C)/C4=C/C5=C(C[C@]4(C)[C@H]3[C@@H](O)C[C@]2(C)[C@@]1(O)C(=O)CO)C=N[N]5C6=CC=CC=C6 [Deacetyl cortivazol] | -5.08 | -5.63 |
| COc1ccc(/C=C\c2cc(OC)c(OC)c(OC)c2)cc1NC(=O)[C@H](N)CO [Ombrabulin] | -8.38 | -7.78 |
| CC1(C)S[C@H]2[C@H](NC(=O)[C@@H](N)C3=CC=C(O)C=C3)C(=O)[N@]2[C@H]1C(O)=O [Amoxicillin sodium] | -5.08 | -5.53 |
| Cc1ccc2nc(NCCN)c3ncc(C)n3c2c1 | -5.18 | -6.18 |
| C[C@]\1(CCS\C(=N1)N)C2=CC(=C(F)C=C2F)C3=CN=CN=C3 | -4.63 | -4.73 |
| CN1CCC(CNc2ccc3ncc(-c4cccc(OC(F)(F)F)c4)n3n2)CC1 [SGI-1776] | -4.83 | -5.03 |
| CC(C)n1cnc2c(NCCc3ccc(O)cc3)nc(-c3csc4ccccc34)nc21 [StemRegenin 1] | -4.88 | -5.78 |
| C[C@@H](Oc1cc(-c2cnn(C3CCNCC3)c2)cnc1N)c1c(Cl)ccc(F)c1Cl [Crizotinib] | -4.63 | -4.68 |
| Cc1c(C(=O)Nc2cccc(C(F)(F)F)c2)cc(-c2ccccc2)n1CCCN1CCOCC1 | -4.83 | -4.78 |
| CCc1cnn2c(NCc3ccc[n+]([O-])c3)cc(N3CCCC[C@H]3CCO)nc12 [Dinaciclib] | -7.88 | -8.03 |
| CCCCc1nc2cc(/C=C/C(=O)NO)ccc2n1CCN(CC)CC [Pracinostat] | -6.88 | -5.33 |
| N[S+](=O)([O-])c1cccc2c1C(=O)c1cccc(O)c1C2=O [LLL-12] | -6.63 | -6.98 |
| CC(C)C[C@H](NC(=O)[C@@H](NC(=O)c1cccc(-c2ccccc2)n1)[C@@H](C)O)B(O)O [Delanzomib] | -7.43 | -7.38 |
| CNC(=O)c1cc(Oc2ccc(NC(=O)Nc3ccc(Cl)c(C(F)(F)F)c3)cc2)ccn1 [Sorafenib] | -4.98 | -5.08 |
| CC(=O)NCC(=O)N1[C@@H]2CC[C@H]1c1ccc(Nc3ncc(C(F)(F)F)c(NC4CCC4)n3)cc12 | -5.33 | -5.48 |
| CC(=O)[C@]1(O)Cc2c(O)c3c(c(O)c2[C@@H](O[C@H]2C[C@H](N)[C@H](O)[C@H](C)O2)C1)C(=O)c1ccccc1C3=O [Idarubicin hydrochloride] | -6.63 | -7.38 |
| Cc1cccc(Nc2nc(N[C@@H]3CCCC[C@@H]3N)ncc2C(N)=O)c1 | -4.63 | -4.73 |
| Cc1cc(-c2ncc(CC(=O)Nc3ccc(-c4cnccn4)cn3)cc2C)ccn1 [LGK974] | -4.78 | -4.88 |
| C[C@@H](NC1=CC=CC=C1C(O)=O)C/2=C/C(=C\N3C(=O)/C=C(\N=C23)N4CCOCC4)C [AZD-6482] | -4.87 | -4.82 |
| CN(C)C(=O)[C@H](O)[C@H](Cc1ccccc1)NC(=O)c1cc2cc(Cl)ccc2[nH]1 | -5.13 | -5.23 |
